pIC50: −log10 of the molar value.
Test system: 628569-122-R-J1-PDC complex spheroid viability
Assay: Anticancer human tumor 628569-122-R-J1-PDC patient-derived head and neck squamous carcinoma cell line growth inhibition [CLK]
Conditions: for pIC50: curve of first compound; for viability, T/C: stronger effect = lower value
How it was run: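 Patient-derived tumor cells grown as complex spheroids with HUVEC endothelial cells and mesenchymal stem cells, treated with drug combinations. Concentrations descend in half-log steps from near clinical Cmax, or from 10 microM if Cmax unknown.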
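Also: spheroids exposed to agents for seven days before readout.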
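For viability, T/C in this document: 100% = DMSO vehicle control viability.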

Q: What does the source list for `Cn1ncnc1[C@H]1c2n[nH]c(=O)c3cc(F)cc(c23)N[C@@H]1c1ccc(F)cc1` + CNC(=O)c1ccc(Nc2nc(OC3CCCC3)c3c(-c4ccc5nc(C)oc5c4)c[nH]c3n2)c(OC)c1?
A: pIC50 (second compound 0.0316 µM): < 7.00; pIC50 (second compound 0.1 µM): 7.42; pIC50 (second compound 0.316 µM): 8.82; pIC50 (second compound 1 µM): > 9.50; pIC50 (second compound 3.16 µM): > 9.50; pIC50 (second compound 10 µM): > 9.50; viability, T/C (second compound 0.0316 µM, first compound 0.000316 µM): 86.7%; viability, T/C (second compound 0.0316 µM, first compound 0.001 µM): 90.1%; viability, T/C (second compound 0.0316 µM, first compound 0.00316 µM): 82.7%; viability, T/C (second compound 0.0316 µM, first compound 0.01 µM): 71.3%; viability, T/C (second compound 0.0316 µM, first compound 0.0316 µM): 78%; viability, T/C (second compound 0.0316 µM, first compound 0.1 µM): 64.9%; viability, T/C (second compound 0.1 µM, first compound 0.000316 µM): 61.4%; viability, T/C (second compound 0.1 µM, first compound 0.001 µM): 53.4%; viability, T/C (second compound 0.1 µM, first compound 0.00316 µM): 60.1%; viability, T/C (second compound 0.1 µM, first compound 0.01 µM): 53.7%; viability, T/C (second compound 0.1 µM, first compound 0.0316 µM): 51%; viability, T/C (second compound 0.1 µM, first compound 0.1 µM): 45.9%; viability, T/C (second compound 0.316 µM, first compound 0.000316 µM): 47.7%; viability, T/C (second compound 0.316 µM, first compound 0.001 µM): 48.4%; viability, T/C (second compound 0.316 µM, first compound 0.00316 µM): 51.9%; viability, T/C (second compound 0.316 µM, first compound 0.01 µM): 54.4%; viability, T/C (second compound 0.316 µM, first compound 0.0316 µM): 54.5%; viability, T/C (second compound 0.316 µM, first compound 0.1 µM): 39.6%; viability, T/C (second compound 1 µM, first compound 0.000316 µM): 43.9%; viability, T/C (second compound 1 µM, first compound 0.001 µM): 39.5%; viability, T/C (second compound 1 µM, first compound 0.00316 µM): 48.1%; viability, T/C (second compound 1 µM, first compound 0.01 µM): 39%; viability, T/C (second compound 1 µM, first compound 0.0316 µM): 40.1%; viability, T/C (second compound 1 µM, first compound 0.1 µM): 40.2%; viability, T/C (second compound 3.16 µM, first compound 0.000316 µM): 37.5%; viability, T/C (second compound 3.16 µM, first compound 0.001 µM): 45.5%; viability, T/C (second compound 3.16 µM, first compound 0.00316 µM): 48.5%; viability, T/C (second compound 3.16 µM, first compound 0.01 µM): 41.5%; viability, T/C (second compound 3.16 µM, first compound 0.0316 µM): 37.7%; viability, T/C (second compound 3.16 µM, first compound 0.1 µM): 34.3%; viability, T/C (second compound 10 µM, first compound 0.000316 µM): 47.4%; viability, T/C (second compound 10 µM, first compound 0.001 µM): 39.6%; viability, T/C (second compound 10 µM, first compound 0.00316 µM): 41.4%; viability, T/C (second compound 10 µM, first compound 0.01 µM): 36.7%; viability, T/C (second compound 10 µM, first compound 0.0316 µM): 38%; viability, T/C (second compound 10 µM, first compound 0.1 µM): 31.3%

From PubChem BioAssay AID2060611 (Molecular Pharmacology Branch, DTP, NCI, 2025)
